PubChem BioAssay AID2060885 (Molecular Pharmacology Branch, DTP, NCI, 2025)
Values joined by “and” are separate entries in the source; they are usually repeats but may differ in a detail not shown here. Equal values may be shown once.

Tested on: NCI-H23 complex spheroids with HUVEC/MSC, viability
Assay: Anticancer human tumor NCI-H23 cell line growth inhibition [RAS];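 also: spheroids exposed to compound for 7 days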;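 as to viability, T/C: 100% = DMSO vehicle control viability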
Settings: for viability, T/C: stronger effect = lower value; active = viability on the fitted dose curve at most 10% of control; inactive = the rest
Outline: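 Tumour cells grown as complex spheroids with HUVEC endothelial cells and mesenchymal stem cells, treated with RAS pathway inhibitor combinations. Each agent spans half-log steps from near clinical Cmax, or 10 microM where Cmax is unknown.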

[1] = curve of first compound, second compound 0.0316 µM
[2] = curve of first compound, second compound 0.1 µM
[3] = curve of first compound, second compound 0.316 µM
[4] = curve of first compound, second compound 1 µM
[5] = second compound 0.0316 µM, first compound 0.0316 µM
[6] = second compound 0.0316 µM, first compound 0.1 µM
[7] = second compound 0.0316 µM, first compound 0.316 µM
[8] = second compound 0.0316 µM, first compound 1 µM
[9] = second compound 0.1 µM, first compound 0.0316 µM
[10] = second compound 0.1 µM, first compound 0.1 µM
[11] = second compound 0.1 µM, first compound 0.316 µM
[12] = second compound 0.1 µM, first compound 1 µM
[13] = second compound 0.316 µM, first compound 0.0316 µM
[14] = second compound 0.316 µM, first compound 0.1 µM
[15] = second compound 0.316 µM, first compound 0.316 µM
[16] = second compound 0.316 µM, first compound 1 µM
[17] = second compound 1 µM, first compound 0.0316 µM
[18] = second compound 1 µM, first compound 0.1 µM
[19] = second compound 1 µM, first compound 0.316 µM
[20] = second compound 1 µM, first compound 1 µM

CCn1c(-c2cccnc2C(C)OC)c2c3cc(ccc31)N1CCOC(CC(NC(=O)C(C(C)C)N(C)C(=O)C3(F)CCN(C(=O)C#CC(C)(C)N(C)C)CC3)C(=O)N3CCCC(N3)C(=O)OCC(C)(C)C2)C1 (centres undefined)
< 0.949 nM and 5.92 nM: IC50 (compound alone, run of 07/09/2024)
inactive: viability, T/C (compound 0.000949 µM) 32.4% [middle of 8 runs] | viability, T/C (compound 0.00949 µM) 30.6% [middle of 8 runs] | viability, T/C (compound 0.03 µM) 31.6% [middle of 8 runs] | viability, T/C (compound 0.0949 µM) 30.8% [middle of 8 runs] | viability, T/C (compound 0.3 µM) 28.1% [middle of 8 runs]

C=CC(=O)Nc1cc(Nc2nccc(-c3cn(C)c4ccccc34)n2)c(OC)cc1N(C)CCN(C)C + C#Cc1c(F)ccc2cc(O)cc(-c3ncc4c(N5CC6CCC(C5)N6)nc(OCC56CCCN5CC(F)C6)nc4c3F)c12
inactive: viability, T/C (second compound 0.0316 µM, first compound 0.00316 µM) 101% | viability, T/C (second compound 0.0316 µM, first compound 0.01 µM) 128% | viability, T/C [5] 101% | viability, T/C [6] 99.2% | viability, T/C [7] 98.4% | viability, T/C [8] 102% | viability, T/C (second compound 0.1 µM, first compound 0.00316 µM) 109% | viability, T/C (second compound 0.1 µM, first compound 0.01 µM) 113% | viability, T/C [9] 95.7% | viability, T/C [10] 93.6% | viability, T/C [11] 101% | viability, T/C [12] 112% | viability, T/C (second compound 0.316 µM, first compound 0.00316 µM) 104% | viability, T/C (second compound 0.316 µM, first compound 0.01 µM) 122% | viability, T/C [13] 95.5% | viability, T/C [14] 90% | viability, T/C [15] 89.8% | viability, T/C [16] 89.3% | viability, T/C (second compound 1 µM, first compound 0.00316 µM) 107% | viability, T/C (second compound 1 µM, first compound 0.01 µM) 109% | viability, T/C [17] 93% | viability, T/C [18] 86.6% | viability, T/C [19] 77.1% | viability, T/C [20] 85.3% | viability, T/C (second compound 3.16 µM, first compound 0.00316 µM) 64.5% | viability, T/C (second compound 3.16 µM, first compound 0.01 µM) 64.1% | viability, T/C (second compound 3.16 µM, first compound 0.0316 µM) 60.2% | viability, T/C (second compound 3.16 µM, first compound 0.1 µM) 47.3% | viability, T/C (second compound 3.16 µM, first compound 0.316 µM) 43.5% | viability, T/C (second compound 3.16 µM, first compound 1 µM) 52.8% | viability, T/C (second compound 10 µM, first compound 0.00316 µM) 41.9% | viability, T/C (second compound 10 µM, first compound 0.01 µM) 45.8% | viability, T/C (second compound 10 µM, first compound 0.0316 µM) 36.1% | viability, T/C (second compound 10 µM, first compound 0.1 µM) 34% | viability, T/C (second compound 10 µM, first compound 0.316 µM) 30% | viability, T/C (second compound 10 µM, first compound 1 µM) 30.1%
< 3.16 nM: IC50 (curve of first compound, second compound 10 µM)
81.8 nM: IC50 (curve of first compound, second compound 3.16 µM)
> 1000 nM: IC50 [1] | IC50 [2] | IC50 [3] | IC50 [4]

CC1(O)CCCC1n1c(=O)c(C(F)F)cc2cnc(NC3CCN(S(C)(=O)=O)CC3)nc21 (centres undefined) + C=CC(=O)N1CCN(c2nc(OCC3CCCN3C)nc3c(F)c(-c4nc(N)cc(C)c4C(F)(F)F)c(Cl)cc23)C(C)C1
active: viability, T/C (second compound 0.1 µM, first compound 10 µM) 4.58%
inactive: viability, T/C (second compound 0.00316 µM, first compound 0.0316 µM) 46.8% | viability, T/C (second compound 0.00316 µM, first compound 0.1 µM) 41.8% | viability, T/C (second compound 0.00316 µM, first compound 0.316 µM) 30.8% | viability, T/C (second compound 0.00316 µM, first compound 1 µM) 29.7% | viability, T/C (second compound 0.00316 µM, first compound 3.16 µM) 28.1% | viability, T/C (second compound 0.00316 µM, first compound 10 µM) 6.28% | viability, T/C (second compound 0.01 µM, first compound 0.0316 µM) 44.6% | viability, T/C (second compound 0.01 µM, first compound 0.1 µM) 32.1% | viability, T/C (second compound 0.01 µM, first compound 0.316 µM) 24.9% | viability, T/C (second compound 0.01 µM, first compound 1 µM) 27.3% | viability, T/C (second compound 0.01 µM, first compound 3.16 µM) 25.9% | viability, T/C (second compound 0.01 µM, first compound 10 µM) 4.38% | viability, T/C [5] 36.1% | viability, T/C [6] 26.5% | viability, T/C [7] 23.1% | viability, T/C [8] 25.3% | viability, T/C (second compound 0.0316 µM, first compound 3.16 µM) 26.5% | viability, T/C (second compound 0.0316 µM, first compound 10 µM) 3.8% | viability, T/C [9] 34.6% | viability, T/C [10] 28.7% | viability, T/C [11] 22.1% | viability, T/C [12] 22.6% | viability, T/C (second compound 0.1 µM, first compound 3.16 µM) 23.6% | viability, T/C [13] 31.2% | viability, T/C [14] 23.1% | viability, T/C [15] 22.4% | viability, T/C [16] 20.3% | viability, T/C (second compound 0.316 µM, first compound 3.16 µM) 27.6% | viability, T/C (second compound 0.316 µM, first compound 10 µM) 3.96% | viability, T/C [17] 27.1% | viability, T/C [18] 25.9% | viability, T/C [19] 21% | viability, T/C [20] 22% | viability, T/C (second compound 1 µM, first compound 3.16 µM) 23.5% | viability, T/C (second compound 1 µM, first compound 10 µM) 2.26%
< 31.6 nM: IC50 (curve of first compound, second compound 0.00316 µM) | IC50 (curve of first compound, second compound 0.01 µM) | IC50 [1] | IC50 [2] | IC50 [3] | IC50 [4]

CCc1c2c(nc3ccc(O)cc13)-c1cc3c(c(=O)n1C2)COC(=O)[C@]3(O)CC
8.18% [middle of 4 runs]: viability, T/C (compound 0.0949 µM)
inactive: viability, T/C (compound 0.000949 µM) 91.1% [middle of 4 runs] | viability, T/C (compound 0.003 µM) 59.1% [middle of 4 runs] | viability, T/C (compound 0.00949 µM) 32.2% [middle of 4 runs] | viability, T/C (compound 0.03 µM) 14.4% [middle of 4 runs]
4.43 nM [middle of 4 runs]: IC50 (curve of compound)
active: viability, T/C (compound 0.3 µM) 6.26% [middle of 4 runs]

CC1(C)CCC(Nc2ncc(C(F)(F)F)c(-c3c[nH]c4c(P(C)(C)=O)c(C#N)ccc34)n2)CN1 (centres undefined)
inactive: viability, T/C (compound 0.000949 µM) 86.7% [middle of 4 runs] | viability, T/C (compound 0.003 µM) 73.2% [middle of 4 runs] | viability, T/C (compound 0.00949 µM) 51.7% [middle of 4 runs] | viability, T/C (compound 0.03 µM) 49.3% [middle of 4 runs] | viability, T/C (compound 0.0949 µM) 45.9% [middle of 4 runs] | viability, T/C (compound 0.3 µM) 48% [middle of 4 runs]

CC1(O)CCCC1n1c(=O)c(C(F)F)cc2cnc(NC3CCN(S(C)(=O)=O)CC3)nc21 (centres undefined)
inactive: viability, T/C (compound 0.0316 µM) 94% [middle of 4 runs] | viability, T/C (compound 0.316 µM) 67.5% [middle of 4 runs] | viability, T/C (compound 1 µM) 80.9% [middle of 4 runs] | viability, T/C (compound 3.16 µM) 71.7% [middle of 4 runs]
14.3% [middle of 4 runs]: viability, T/C (compound 10 µM)
4.68 µM [middle of 4 runs]: IC50 (curve of compound)
